{
  "source": "patent US20150157036A1",
  "about": "“Processed Cheese With Natural Antibacterial And Antimycotic Components And Method Of Manufacturing” (KRAFT FOODS GROUP BRANDS LLC, priority 2013, published 2015)",
  "key": {"[1]": {"system": "mold cocktail of Phoma spp., Geotrichum spp., Cladosporium spp., and Penicillium spp.", "test": "Mold challenge study of processed cheese slices inoculated with a mold cocktail", "assay_type": "cell-based", "protocol": "In some approaches, the processed cheese includes an amount of natural antimycotic effective to prevent mold growth for at least about three months, in another aspect at least about four months, in another aspect at least about five months, in another aspect at least about six months, and in yet another aspect at least about seven months, when the processed cheese is stored at about 1 to about 10° C. The efficacy of the natamycin in the processed cheese product can be determined by conducting a mold challenge study, where samples of the processed cheese are inoculated with a known quantity of mold spores, such as 90 cfu/g or 500 cfu/g, and inspecting the samples for visible mold growth during storage at 40 to 45° F.\nNatamycin (Natamax SF from Danisco) was incorporated into processed cheese (prior to the cooking step) at concentrations of 7 ppm and 15 ppm. The processed cheese was then submitted to a mold challenge study. The processed cheese was inoculated with a mold cocktail (spores in liquid media) of Phoma spp., Geotrichum spp., Cladosporium spp., and Penicillium spp. (which represent common types of mold) at 90 spores per 19 gram slice. The samples are inoculated by spreading the cocktail on top of cheese slices. A control was not inoculated. […] The detectable level of natamycin was determined by HPLC. […]"}, "[2]": {"test": "Detectable level of natamycin in processed cheese by HPLC during storage", "assay_type": "physicochemical", "settings": "for detectable natamycin concentration in the product: by six months, stored at 45° F.; for natamycin in processed cheese, on average: three days after producing the processed cheese, four samples", "protocol": "Natamycin (Natamax SF from Danisco) was incorporated into processed cheese (prior to the cooking step) at 15 ppm. Cultured dairy component containing nisin was incorporated into all products at 8 percent based on the total weight of the processed cheese. Samples of the processed cheese were inoculated at 100 cfu/g and 500 cfu/g. The detectable level of natamycin was determined by HPLC."}, "mold": {"system": "mold", "test": "Shelf life of processed cheese slices, visible mold during storage", "assay_type": "cell-based", "settings": "processed cheese slices containing about 4.8 ppm natamycin; stored at 45° F.; control without natamycin showed visible mold at three months", "excerpt": "Processed cheese slices were produced containing about 4.8 ppm natamycin (Natamax SF from Danisco)."}, "[3]": {"settings": "average of samples, dosage level 15 ppm, storage at 45° F."}, "[4]": {"settings": "dosage level 15 ppm before cooking, 8 percent cultured dairy component containing nisin, storage at 45° F., HPLC, single samples"}},
  "note": "Several values for one entry are separate records, joined by “and”; a condition that tells them apart may be missing. Identical values can stand only once.",
  "data": [
    {"smiles": "C[C@@H]1C/C=C/C=C/C=C/C=C/[C@H](O[C@@H]2O[C@H](C)[C@@H](O)[C@H](N)[C@@H]2O)C[C@@H]2O[C@](O)(C[C@@H](O)C[C@H]3O[C@@H]3/C=C/C(=O)O1)C[C@H](O)[C@H]2C(=O)O", "note": "[Natamycin, natamycin]", "values": [
      {"measurement": "shelf life relative to control", "setting": "[1]; 10 ppm and 15 ppm natamycin plus 8 percent cultured dairy component containing nisin, inoculated with 500 cfu/g or 9,500 spores per slice", "result": "almost double that of control"},
      {"measurement": "extension of shelf life versus control that lacked mold inhibitor", "setting": "[1]; processed cheese with 7 ppm or 15 ppm natamycin added before cooking, 90 spores per 19 gram slice, stored at 45° F.", "result": "at least six months longer than a control"},
      {"measurement": "detectable natamycin concentration in the product", "setting": "[2]; 7 ppm sample, HPLC", "result": 0.62, "unit": "ppm"},
      {"measurement": "detectable natamycin concentration in the product", "setting": "[2]; 15 ppm sample, HPLC", "result": 4.89, "unit": "ppm"},
      {"measurement": "Detected Natamycin Concentration (ppm) after Four Months, average", "setting": "[2]; [3]", "result": "Average = 3.39 ppm"},
      {"measurement": "Detected Natamycin Concentration (ppm) after One Week, average", "setting": "[2]; [3]", "result": "Average = 4.68 ppm"},
      {"measurement": "Detected Natamycin Concentration (ppm) after Two Months, average", "setting": "[2]; [3]", "result": "Average = 5.93 ppm"},
      {"measurement": "Detected Natamycin Concentration (ppm) after Four Months", "setting": "[2]; [4]", "result": "3.07 ppm and 3.39 ppm and 3.64 ppm and 2.97 ppm and 3.37 ppm and 3.28 ppm and 3.14 ppm"},
      {"measurement": "Detected Natamycin Concentration (ppm) after One Week", "setting": "[2]; [4]", "result": "4.61 ppm and 4.63 ppm and 4.80 ppm"},
      {"measurement": "Detected Natamycin Concentration (ppm) after Three Months", "setting": "[2]; [4]", "result": "6.87 ppm and 6.34 ppm and 7.46 ppm and 6.13 ppm and 6.84 ppm and 6.78 ppm and 7.36 ppm"},
      {"measurement": "Detected Natamycin Concentration (ppm) after Two Months", "setting": "[2]; [4]", "result": "6.73 ppm and 4.62 ppm and 6.32 ppm and 5.34 ppm and 5.91 ppm and 6.81 ppm and 5.67 ppm"},
      {"measurement": "change of the detectable quantity of natamycin during storage", "setting": "[2]; processed cheese with natamycin and cultured dairy component, HPLC", "result": "increase in months 2 and 3 of storage and then decrease in month 4"},
      {"measurement": "natamycin in processed cheese, on average", "setting": "[2]; starting with 10 ppm, 8 percent cultured dairy component containing nisin", "result": 2.8, "unit": "ppm"},
      {"measurement": "natamycin in processed cheese, on average", "setting": "[2]; starting with 15 ppm, 8 percent cultured dairy component containing nisin", "result": 4.9, "unit": "ppm"},
      {"measurement": "visible mold at five months of shelf life", "setting": "mold", "result": "no visible mold"}
    ]}
  ]
}
